Data on 20 molecules can be found in patent US9611277B2 (Janssen Pharmaceutica NV, priority 2013, dated 2017).

Molecules are shown by their SMILES. Like-named read-outs stand apart in the source and are kept apart here.

In experiment [1] the target is human orexin 2 receptor (Homo sapiens (Human), UniProt O43614). The experiment in a line: Human orexin 2 receptor radioligand binding. The note with it: read-out: hOX2 Ki. The method, then: (§1) Data are analyzed using pc-Sandy macro and graphed on Graphpad Prism 5. For analysis, each concentration point is averaged from triplicate values and the averaged values are plotted on Graphpad Prism. The IC50 was determined by applying the following equation (GraphPad Prism 5.0, SanDiego) for one site competition where X=log (concentration) and Y=specific binding. Top denotes the total [^3H]-(1-(5-(2-fluoro-phenyl)-2-methyl-thiazol-4-yl)-1-((S)-2-(5-phenyl-(1,3,4)oxadiazol-2-ylmethyl)-pyrrolidin-1-yl)-methanone) binding, bottom denotes the nonspecific [^3H]-(1-(5-(2-fluoro-phenyl)-2-methyl-thiazol-4-yl)-1-((S)-2-(5-phenyl-(1,3,4)oxadiazol-2-ylmethyl)-pyrrolidin-1-yl)-methanone) binding. Graphpad Prism calculates Ki value from IC50 and the pre-determined Kd values for [^3H]-(1-(5-(2-fluoro-phenyl)-2-methyl-thiazol-4-yl)-1-((S)-2-(5-phenyl-(1,3,4)oxadiazol-2-ylmethyl)-pyrrolidin-1-yl)-methanone) and [3H]-EMPA. The Ki for each compound is then uploaded into 3DX. Each run comprises individual compounds in triplicate. The data in Table 1 and Table 2 represent averages from between 2-20 runs
Chain of human orexin 2 receptor (O43614 whole entry): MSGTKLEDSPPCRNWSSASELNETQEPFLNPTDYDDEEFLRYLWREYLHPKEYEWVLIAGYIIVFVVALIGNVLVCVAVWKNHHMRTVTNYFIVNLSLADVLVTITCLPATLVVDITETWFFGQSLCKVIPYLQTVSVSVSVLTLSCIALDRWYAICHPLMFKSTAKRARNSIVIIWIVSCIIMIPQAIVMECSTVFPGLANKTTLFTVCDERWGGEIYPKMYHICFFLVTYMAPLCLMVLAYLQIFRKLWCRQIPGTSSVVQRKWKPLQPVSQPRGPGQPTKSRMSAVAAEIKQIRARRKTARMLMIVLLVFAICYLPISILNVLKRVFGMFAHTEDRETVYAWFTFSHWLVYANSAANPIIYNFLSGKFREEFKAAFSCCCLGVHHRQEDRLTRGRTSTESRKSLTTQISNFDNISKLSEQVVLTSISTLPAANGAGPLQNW
Human Orexin 2 Receptor Radioligand Binding Studies
HEK293 stably expressing human orexin 2 receptor (Genebank accession number NM_001526) were grown to confluency in DMEM (Hyclone, cat # SH30022), 10% FBS, 1× Pen/Strep, 1× NaPyruvate, 10 mM HEPES, 600 ug/ml G418 media on 150 cm^2 tissue culture plates, washed with 5 mM EDTA in PBS (HyClone Dulbecco's Phosphate Buffered Saline 1× with Calcium and Magnesium, Cat # SH30264.01, hereafter referred to simply as PBS) and scraped into 50 ml tubes. After centrifugation (2K×G, 5 min at 4° C.), the supernatant was aspirated and the pellets frozen and stored at −80° C. […] Each cell pellet from a 15 cm plate was resuspended in 10 mL, stored on ice, and homogenized for 45 sec just prior to addition to the reactions. […] The final concentration of DMSO in the reactions is equal to or less than 0.1%. Total and nonspecific binding was determined in the absence and presence of 10 μM almorexant. The total volume of each reaction is 200 μL (20 μL of diluted compounds, 80 μL of [^3H]-EMPA diluted in PBS and 100 μL of the cell suspension). […] The plates were washed 3 times by aspirating 30 ml PBS through the plates. Plates were dried in 55° C. oven for 60 min, scintillation fluid was added, and the radioactivity was counted on a Topcount (Packard).

The target of experiment [2] is rat orexin 1 receptor (Rattus norvegicus, UniProt P56718). The experiment in a line: Rat orexin 1 receptor radioligand binding. The method, then:
as §1
Rat and Human Orexin 1 Receptor Radioligand Binding Studies
After centrifugation (2K×G, 5 min at 4° C.), the supernatant was aspirated and the pellets frozen and stored at −80° C. […] Each cell pellet from a 15 cm plate was resuspended in 10 mL, stored on ice, and homogenized for 45 sec prior to addition to the reactions. […] The final concentration of DMSO in the reactions is equal to or less than 0.1%. Total and nonspecific binding was determined in the absence and presence of 10 μM almorexant. The total volume of each reaction is 200 μL (20 μL of diluted compounds, 80 μL of [^3H]-(1-(5-(2-fluoro-phenyl)-2-methyl-thiazol-4-yl)-1-((S)-2-(5-phenyl-(1,3,4)oxadiazol-2-ylmethyl)-pyrrolidin-1-yl)-methanone) diluted in PBS and 100 μL of the cell suspension). […] The plates were washed 3 times by aspirating 30 ml PBS through the plates. Plates were dried in 55° C. oven for 60 min, scintillation fluid was added, and the radioactivity was counted on a Topcount (Packard).

Setting [3] is: human orexin 2 receptor, averages of 2-20 runs.
The mark [4] stands for this setting: rat orexin 1 receptor, averages of 2-20 runs, read-out: rOX1 Ki.

In the case of `Cc1cnc(O[C@@H]2C[C@H]3C[C@@H]2N(C(=O)c2nc(C)ccc2-n2nccn2)C3)nc1` [Example 132, (6-methyl-3-(2H-1,2,3-triazol-2-yl)pyridin-2-yl)((1S,4R,6R)-6-((5-methylpyrimidin-2-yl)oxy)-2-azabicyclo[2.2.1]heptan-2-yl)methanone], the inhibitory constant (Ki) in experiment [1] (setting [3]) came to 6800 nM; in experiment [2] (setting [4]), 425 nM. For `Cc1nc2sccn2c1C(=O)N1CC2CC(Oc3ccc(C(F)(F)F)cn3)C1C2` (racemic) [Example 6, (R/S)-(6-methylimidazo[2,1-b]thiazol-5-yl)(6-((5-(trifluoromethyl)pyridin-2-yl)oxy)-2-azabicyclo[2.2.1]heptan-2-yl)methanone], in that order: over 10000 nM and over 10000 nM.

Take `O=C(c1cccc(F)c1-n1nccn1)N1CC2CCC1C(Nc1cnc(C(F)(F)F)cn1)C2` (racemic) [Example 255, (R/S)-(3-fluoro-2-(2H-1,2,3-triazol-2-yl)phenyl)(6-((5-(trifluoromethyl)pyrazin-2-yl)amino)-2-azabicyclo[2.2.2]octan-2-yl)methanone]: in experiment [1] (setting [3]), the Ki came to 1000 nM. As for `O=C(c1cccc(F)c1-c1ncccn1)N1C[C@H]2C[C@@H](Oc3ncccc3C(F)(F)F)[C@@H]1C2` [Example 96, (3-fluoro-2-(pyrimidin-2-yl)phenyl)((1S,4R,6R)-6-((3-(trifluoromethyl)pyridin-2-yl)oxy)-2-azabicyclo[2.2.1]heptan-2-yl)methanone], the Ki in experiment [1] (setting [3]) turned out to be 1700 nM; in experiment [2] (setting [4]), 320 nM. Regarding `O=C(c1ccccc1-n1nccn1)N1C[C@H]2C[C@@H](Oc3ccccn3)[C@@H]1C2` [Example 102, (2-(2H-1,2,3-triazol-2-yl)phenyl)((1S,4R,6R)-6-(pyridin-2-yloxy)-2-azabicyclo[2.2.1]heptan-2-yl)methanone], the Ki turned out to be 1600 nM in experiment [1] (setting [3]) and 404 nM in experiment [2] (setting [4]). `O=C(c1c(F)cccc1-c1ncccn1)N1C[C@H]2C[C@@H](Oc3ccc(C(F)(F)F)cn3)[C@@H]1C2` [Example 38, (2-fluoro-6-(pyrimidin-2-yl)phenyl)((1S,4R,6R)-6-((5-(trifluoromethyl)pyridin-2-yl)oxy)-2-azabicyclo[2.2.1]heptan-2-yl)methanone]: in experiment [1] (setting [3]), the Ki worked out at 633 nM. For the molecule `COc1cccc(-c2ncccn2)c1C(=O)N1C[C@H]2C[C@@H](Oc3ccc(C(F)(F)F)cn3)[C@@H]1C2` [Example 40, (2-methoxy-6-(pyrimidin-2-yl)phenyl)((1S,4R,6R)-6-((5-(trifluoromethyl)pyridin-2-yl)oxy)-2-azabicyclo[2.2.1]heptan-2-yl)methanone], the Ki in experiment [2] (setting [4]) was found to be 15 nM.

On to `O=C(c1cc(F)ccc1-n1nccn1)N1C[C@H]2C[C@@H](Nc3ccc(C(F)(F)F)cn3)[C@@H]1C2` [Example 57, (5-fluoro-2-(2H-1,2,3-triazol-2-yl)phenyl)((1S,4S,6R)-6-((5-(trifluoromethyl)pyridin-2-yl)amino)-2-azabicyclo[2.2.1]heptan-2-yl)methanone], for which the Ki in experiment [1] (setting [3]) was determined as 225 nM; in experiment [2] (setting [4]), 5 nM.

Turning to `CC(=O)N(c1ccc(C(F)(F)F)cn1)[C@@H]1C[C@H]2C[C@@H]1N(C(=O)c1cccc(F)c1-c1ncccn1)C2` [Example 162, N-((1S,4R,6R)-2-(3-fluoro-2-(pyrimidin-2-yl)benzoyl)-2-azabicyclo[2.2.1]heptan-6-yl)-N-(5-(trifluoromethyl)pyridin-2-yl)acetamide], the inhibition constant (Ki) in experiment [1] (setting [3]) and in experiment [2] (setting [4]) was over 10000 nM throughout. As for `O=C(c1ccccc1-n1nccn1)N1CC2CCC1C(Nc1cnc(C(F)(F)F)cn1)C2` (racemic) [Example 254, (R/S)-(2-(2H-1,2,3-triazol-2-yl)phenyl)(6-((5-(trifluoromethyl)pyrazin-2-yl)amino)-2-azabicyclo[2.2.2]octan-2-yl)methanone], the Ki worked out at 307 nM in experiment [1] (setting [3]) and 12 nM in experiment [2]. For the molecule `O=C(c1ccccc1-n1nccn1)N1C[C@@H]2CC[C@H]1[C@H](Nc1cnc(C(F)(F)F)cn1)C2` [Example 275, (2-(2H-1,2,3-triazol-2-yl)phenyl)((1S,4R,6R)-6-((5-(trifluoromethyl)pyrazin-2-yl)amino)-2-azabicyclo[2.2.2]octan-2-yl)methanone], the inhibition constant Ki was determined as 175 nM in experiment [1] and 8 nM in experiment [2] (read-out: rOX1 Ki). In the case of `O=C(c1cccc(F)c1-n1nccn1)N1C[C@@H]2CC[C@H]1[C@H](Nc1cnc(C(F)(F)F)cn1)C2` [Example 274, (3-fluoro-2-(2H-1,2,3-triazol-2-yl)phenyl)((1S,4R,6R)-6-((5-(trifluoromethyl)pyrazin-2-yl)amino)-2-azabicyclo[2.2.2]octan-2-yl)methanone], the inhibition constant Ki in experiment [1] (setting [3]) came to 534 nM. For `O=C(c1cccc(F)c1-c1ncccn1)N1C[C@H]2CC[C@@H]1[C@@H](Nc1cnc(C(F)(F)F)cn1)C2` [Example 276, (3-fluoro-2-(pyrimidin-2-yl)phenyl)((1R,4S,6S)-6-((5-(trifluoromethyl)pyrazin-2-yl)amino)-2-azabicyclo[2.2.2]octan-2-yl)methanone], the figures for the Ki in experiment [1] (setting [3]) and in experiment [2] (setting [4]) were over 10000 nM and 2700 nM, respectively. For `Cc1ccc(C(=O)N2C[C@H]3C[C@@H](Oc4ccccn4)[C@@H]2C3)c(-n2nccn2)n1` [Example 103, (6-methyl-2-(2H-1,2,3-triazol-2-yl)pyridin-3-yl)((1S,4R,6R)-6-(pyridin-2-yloxy)-2-azabicyclo[2.2.1]heptan-2-yl)methanone], in that order: over 10000 nM and over 10000 nM. For `Cc1ccc(-n2nccn2)c(C(=O)N2C[C@H]3C[C@@H](Oc4ccc(C(F)(F)F)nn4)[C@@H]2C3)n1` [Example 140, (6-methyl-3-(2H-1,2,3-triazol-2-yl)pyridin-2-yl)((1S,4R,6R)-6-((6-(trifluoromethyl)pyridazin-3-yl)oxy)-2-azabicyclo[2.2.1]heptan-2-yl)methanone], in that order: 7700 nM and 330 nM.

As for `Cc1cnc(O[C@@H]2C[C@H]3C[C@@H]2N(C(=O)c2ncc(C)cc2-c2ncccn2)C3)nc1` [Example 134, (5-methyl-3-(pyrimidin-2-yl)pyridin-2-yl)((1S,4R,6R)-6-((5-methylpyrimidin-2-yl)oxy)-2-azabicyclo[2.2.1]heptan-2-yl)methanone], the results for the Ki in experiment [1] (setting [3]) and in experiment [2] (setting [4]) were over 10000 nM and 668 nM, respectively. For `Cc1ccc(-c2ncccn2)c(C(=O)N2C[C@H]3C[C@@H](Oc4ccc(C(F)(F)F)nn4)[C@@H]2C3)n1` [Example 142, (6-methyl-3-(pyrimidin-2-yl)pyridin-2-yl)((1S,4R,6R)-6-((6-(trifluoromethyl)pyridazin-3-yl)oxy)-2-azabicyclo[2.2.1]heptan-2-yl)methanone], in that order: 7900 nM and 376 nM. Regarding `COc1cccc(-n2nccn2)c1C(=O)N1C[C@H]2C[C@@H](Oc3ccc(C(F)(F)F)cn3)[C@@H]1C2` [Example 289, (2-methoxy-6-(2H-1,2,3-triazol-2-yl)phenyl)((1S,4R,6R)-6-((5-(trifluoromethyl)pyridin-2-yl)oxy)-2-azabicyclo[2.2.1]heptan-2-yl)methanone], the Ki in experiment [1] (setting [3]) came out at 207 nM.

For `COc1cccc(-c2ccn[nH]2)c1C(=O)N1C[C@H]2C[C@@H](Oc3ccc(C(F)(F)F)cn3)[C@@H]1C2` [Example 39, (2-methoxy-6-(1H-pyrazol-5-yl)phenyl)((1S,4R,6R)-6-((5-(trifluoromethyl)pyridin-2-yl)oxy)-2-azabicyclo[2.2.1]heptan-2-yl)methanone], the inhibition constant (Ki) in experiment [2] (setting [4]) turned out to be 72 nM. For `O=C(c1cccc(F)c1-n1nccn1)N1CC2CCC1C(Oc1ccc(C(F)(F)F)cn1)C2` (racemic) [Example 249, (R/S)-(3-fluoro-2-(2H-1,2,3-triazol-2-yl)phenyl)(6-((5-(trifluoromethyl)pyridin-2-yl)oxy)-2-azabicyclo[2.2.2]octan-2-yl)methanone], the inhibitory constant (Ki) in experiment [1] (setting [3]) was 758 nM.

As a reminder, the Ki is a measure of affinity in units of concentration, obtained from inhibition or displacement.
